Tests used:
[1] = system: K. pneumoniae ATCC 10031 (SEN) and K. pneumoniae ATCC 700603 (MDR); experiment: Adaptive laboratory evolution (ALE), relative MIC of evolved lines; type: cell-based, Klebsiella pneumoniae
Summary of the method: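 Ten parallel populations per antibiotic–ancestor pair were evolved in MHB at 37 °C, starting near 50% growth-inhibiting drug. Every 72 h they were passaged into 0.5–2.5× increasing concentrations, keeping the highest-drug well with OD600 > 0.2.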

E. coli BW25113-ΔacrB = experiment: AcrAB-TolC efflux deficiency screen, relative MIC; type: cell-based, Escherichia coli; settings: ΔacrB vs wild-type
Method: Fig. 6 The impact of AcrAB-TolC activity on antibiotic susceptibility. E. coli strains with AcrAB-TolC depletion (BW25113-ΔacrB) and overexpression (BW25113: pUCacrAB) were treated with various antibiotics, and the level of resistance was determined as minimum inhibitory concentration (MIC) relative to a wild-type strain, presented on a logarithmic scale (log2). Each bar represents the mean resistance level (susceptibility, i.e., level of resistance < 0; and resistance, i.e., level of resistance > 0) to antibiotics induced by acrAB overexpression (blue bars; E. coli with a multicopy plasmid of the acrAB genes (pUCacrAB)) and acrB deletion (red bars; mutant E. coli with acrB gene deletion (ΔacrB)) compared to the wild-type. Data are presented as mean values of 3 biological replicates ± SD. […] Detailed information on antibiotic and bacterial strain abbreviations is provided in Supplementary Data 1. Source data are provided as a Source Data file. For information on mode of action groups, refer to Table 1.
For the efflux deficiency screen, the ΔacrB mutant of E. coli K12 BW25113[86] and its equivalent wild-type control strain with intact gene were utilized. In contrast, BW25113 carrying a multicopy acrAB plasmid (pUCacrAB)[87] and its control strain harboring an empty pUC118 plasmid were used to overexpress the acrAB efflux system. According to established protocols via P1 transduction, the suitable acrB deletion mutant (ΔacrB BW25113) was created, while the pUCacrAB plasmid was kindly provided by Kunihiko Nishino and Akihito Yamaguchi (Osaka University, Osaka, Japan). In a prior study, both strains were employed. Since the copy number of the plasmid carrying the efflux pump is controlled by native promoters, external induction is unnecessary.
Antibiotic susceptibilities of these strains were evaluated using a modified version of the standard broth dilution method. In 96-well microtiter plates containing fresh MHB medium, or supplemented MS medium in case of SCH79797, ten-step serial dilutions of an antibiotic from a stock solution were made (2 wells per antibiotic concentration per strain). The two wells contained only supplemented media without any antibiotics […]. Strains were incubated overnight at 37 °C with continuous agitation. Additionally, plasmid containing strains were grown in the presence of 100 µg/mL ampicillin. The culture was diluted to yield a cell suspension with 5 ×10^5 cells/mL and then inoculated into the wells of the microtiter plate. To determine the medium’s background OD value, the first column of the 96-well plate contained solely MHB without inoculum. Prior to the measurement, the plates were incubated at 37 °C with continuous shaking at 900 rpm with 3 mm throw. OD600 values were determined in a microplate reader after 18 hours of incubation (Biotek Synergy 2). The minimum inhibitory concentration (MIC) was determined as the lowest concentration of antibiotic at which the OD600 values were less than 0.05 after subtracting the background value. The log2 of the relative MIC was computed using the following equation:2 log2relativeMICpUCacrAB=MICpUCacrAB/MICpUC118 3 log2relativeMICΔacrB=MICΔacrB/MICwt

[2] = KP-SEN (Klebsiella pneumoniae ATCC 10031), evolved line 1
[3] = KP-SEN (Klebsiella pneumoniae ATCC 10031), evolved line 3
[4] = KP-SEN (Klebsiella pneumoniae ATCC 10031), evolved line 9
[5] = KP-SEN (Klebsiella pneumoniae ATCC 10031), evolved line 10
[6] = KP-SEN, Klebsiella pneumoniae ATCC 10031, evolved line 7
[7] = Klebsiella pneumoniae ATCC 10031 (KP-SEN), evolved line 1
[8] = Klebsiella pneumoniae ATCC 10031 (KP-SEN), evolved line 4
[9] = KP-SEN (Klebsiella pneumoniae ATCC 10031), evolved line 2 adapted to the named antibiotic
[10] = KP-SEN (Klebsiella pneumoniae ATCC 10031), evolved line 6
[11] = KP-SEN (Klebsiella pneumoniae ATCC 10031), evolved line 6 adapted to the named antibiotic
[12] = KP-SEN (Klebsiella pneumoniae ATCC 10031), evolved line 8
[13] = KP-SEN, Klebsiella pneumoniae ATCC 10031, evolved line 1 versus ancestor
[14] = KP-SEN, Klebsiella pneumoniae ATCC 10031, evolved line 2 versus ancestor
[15] = KP-SEN, Klebsiella pneumoniae ATCC 10031, evolved line 4 versus ancestor
[16] = KP-SEN, Klebsiella pneumoniae ATCC 10031, evolved line 5 versus ancestor
[17] = KP-SEN, Klebsiella pneumoniae ATCC 10031, evolved line 6 versus ancestor
[18] = KP-SEN, Klebsiella pneumoniae ATCC 10031, evolved line 7 versus ancestor
[19] = KP-SEN, Klebsiella pneumoniae ATCC 10031, evolved line 8 versus ancestor
[20] = KP-SEN, Klebsiella pneumoniae ATCC 10031, evolved line 9 versus ancestor
[21] = KP-SEN, Klebsiella pneumoniae ATCC 10031, evolved line 5

SMILES: CN(C)[C@@H]1C(O)=C(C(N)=O)C(=O)[C@@]2(O)C(O)=C3C(=O)c4c(O)c(NC(=O)CN5CCCC5)cc(F)c4C[C@H]3C[C@@H]12 [Eravacycline]
- Relative MIC ([1]; KP-MDR (ATCC 700603), evolved line 1, MIC of evolved line / MIC of ancestor): 8
- Relative MIC ([1]; KP-MDR (ATCC 700603), evolved line 2, MIC of evolved line / MIC of ancestor): 8
- Relative MIC ([1]; KP-MDR (ATCC 700603), evolved line 3, MIC of evolved line / MIC of ancestor): 16
- Relative MIC ([1]; KP-MDR (ATCC 700603), evolved line 4, MIC of evolved line / MIC of ancestor): 8
- Relative MIC ([1]; KP-MDR (ATCC 700603), evolved line 5, MIC of evolved line / MIC of ancestor): 8
- Relative MIC ([1]; KP-MDR (ATCC 700603), evolved line 6, MIC of evolved line / MIC of ancestor): 8
- Relative MIC ([1]; KP-MDR (ATCC 700603), evolved line 7, MIC of evolved line / MIC of ancestor): 8
- Relative MIC ([1]; KP-MDR (ATCC 700603), evolved line 8, MIC of evolved line / MIC of ancestor): 16
- Relative MIC ([1]; KP-MDR (ATCC 700603), evolved line 9, MIC of evolved line / MIC of ancestor): 8
- Relative MIC ([1]; KP-MDR (ATCC 700603), evolved line 10, MIC of evolved line / MIC of ancestor): 8
- Relative MIC (log10) ([1]; KP-MDR (Klebsiella pneumoniae ATCC 700603), evolved line 1 adapted to the named antibiotic): 0.9031
- Relative MIC (log10) ([1]; KP-MDR (Klebsiella pneumoniae ATCC 700603), evolved line 3 adapted to the named antibiotic): 1.204
- Relative MIC (log10) ([1]; KP-MDR (Klebsiella pneumoniae ATCC 700603), evolved line 4 adapted to the named antibiotic): 0.9031
- Relative MIC (log10) ([1]; KP-MDR (Klebsiella pneumoniae ATCC 700603), evolved line 8 adapted to the named antibiotic): 1.204
- Relative MIC (log10) ([1]; KP-MDR (Klebsiella pneumoniae ATCC 700603), evolved line 9 adapted to the named antibiotic): 0.9031
- Relative MIC ([1]; KP-SEN (ATCC 10031), evolved line 1, evolved vs ancestor): 512
- Relative MIC ([1]; KP-SEN (ATCC 10031), evolved line 3, evolved vs ancestor): 256
- Relative MIC ([1]; KP-SEN (ATCC 10031), evolved line 4, evolved vs ancestor): 64
- Relative MIC ([1]; KP-SEN (ATCC 10031), evolved line 7, evolved vs ancestor): 64
- Relative MIC ([1]; KP-SEN (ATCC 10031), evolved line 9, evolved vs ancestor): 256
- Relative MIC ([1]; KP-SEN (ATCC 10031), evolved line 10, evolved vs ancestor): 512
- Relative MIC (log10) [1, 2]: 2.709 log10
- Relative MIC (log10) [1, 3]: 2.408 log10
- Relative MIC (log10) [1, 4]: 2.408 log10
- Relative MIC (log10) [1, 5]: 2.709 log10
- Relative MIC (log10) [1, 6]: 1.806 log10
- Relative MIC [1, 7]: 512
- Relative MIC ([1]; Klebsiella pneumoniae ATCC 10031 (KP-SEN), evolved line 3): 256
- Relative MIC [1, 8]: 64
- Relative MIC ([1]; Klebsiella pneumoniae ATCC 10031 (KP-SEN), evolved line 7): 64
- Relative MIC ([1]; Klebsiella pneumoniae ATCC 10031 (KP-SEN), evolved line 9): 256
- Relative MIC ([1]; Klebsiella pneumoniae ATCC 10031 (KP-SEN), evolved line 10): 512
- Relative MIC ([1]; Klebsiella pneumoniae ATCC 700603 (KP-MDR), evolved line 1): 8
- Relative MIC ([1]; Klebsiella pneumoniae ATCC 700603 (KP-MDR), evolved line 2): 8
- Relative MIC ([1]; Klebsiella pneumoniae ATCC 700603 (KP-MDR), evolved line 3): 16
- Relative MIC ([1]; Klebsiella pneumoniae ATCC 700603 (KP-MDR), evolved line 4): 8
- Relative MIC ([1]; Klebsiella pneumoniae ATCC 700603 (KP-MDR), evolved line 5): 8
- Relative MIC ([1]; Klebsiella pneumoniae ATCC 700603 (KP-MDR), evolved line 6): 8
- Relative MIC ([1]; Klebsiella pneumoniae ATCC 700603 (KP-MDR), evolved line 7): 8
- Relative MIC ([1]; Klebsiella pneumoniae ATCC 700603 (KP-MDR), evolved line 8): 16
- Relative MIC ([1]; Klebsiella pneumoniae ATCC 700603 (KP-MDR), evolved line 9): 8
- Relative MIC ([1]; Klebsiella pneumoniae ATCC 700603 (KP-MDR), evolved line 10): 8
- Relative MIC (log2) (E. coli BW25113-ΔacrB; replicate 1): -2.34
- Relative MIC (log2) (E. coli BW25113-ΔacrB; replicate 2): -2.34
- Relative MIC (log2) (E. coli BW25113-ΔacrB; replicate 3): -2.34

SMILES: CNC(C)C1CCC(N)C(OC2C(N)CC(N)C(OC3OCC(C)(O)C(NC)C3O)C2O)O1 (stereo not drawn) [Gentamicin]
- Relative MIC (log10) [1, 9]: 2.107
- Relative MIC (log10) ([1]; KP-SEN (Klebsiella pneumoniae ATCC 10031), evolved line 4 adapted to the named antibiotic): 1.806
- Relative MIC (log10) ([1]; KP-SEN (Klebsiella pneumoniae ATCC 10031), evolved line 5 adapted to the named antibiotic): 1.806
- Relative MIC [1, 10]: 64
- Relative MIC (log10) [1, 11]: 1.806
- Relative MIC [1, 12]: 128
- Relative MIC (log10) ([1]; KP-SEN (Klebsiella pneumoniae ATCC 10031), evolved line 8 adapted to the named antibiotic): 2.107
- Relative MIC [1, 4]: 128
- Relative MIC [1, 5]: 128
- Relative MIC [1, 13]: 64
- Relative MIC [1, 14]: 128
- Relative MIC [1, 15]: 64
- Relative MIC [1, 16]: 64
- Relative MIC [1, 17]: 64
- Relative MIC [1, 18]: 64
- Relative MIC [1, 19]: 128
- Relative MIC [1, 20]: 128
- Relative MIC ([1]; KP-SEN, Klebsiella pneumoniae ATCC 10031, evolved line 10 versus ancestor): 128
- Relative MIC [1, 21]: 64
- Relative MIC [1, 6]: 64
- Relative MIC [1, 7]: 64
- Relative MIC ([1]; Klebsiella pneumoniae ATCC 10031 (KP-SEN), evolved line 2): 128
- Relative MIC [1, 8]: 64
- Relative MIC (log2) (E. coli BW25113-ΔacrB; replicate 1): 0
- Relative MIC (log2) (E. coli BW25113-ΔacrB; replicate 2): 0
- Relative MIC (log2) (E. coli BW25113-ΔacrB; replicate 3): 0

SMILES: O=c1ccc2ncc(=O)n3c2n1C[C@H]3CN1CCC(NCc2cc3c(cn2)OCCC3)CC1 [Gepotidacin]
- Relative MIC [1, 2]: 2048
- Relative MIC ([1]; KP-SEN (Klebsiella pneumoniae ATCC 10031), evolved line 2): 2048
- Relative MIC (log10) [1, 9]: 3.311
- Relative MIC [1, 3]: 1024
- Relative MIC (log10) ([1]; KP-SEN (Klebsiella pneumoniae ATCC 10031), evolved line 3 adapted to the named antibiotic): 3.0103
- Relative MIC ([1]; KP-SEN (Klebsiella pneumoniae ATCC 10031), evolved line 4): 1024
- Relative MIC [1, 10]: 2048
- Relative MIC (log10) [1, 11]: 3.311
- Relative MIC (log10) ([1]; KP-SEN (Klebsiella pneumoniae ATCC 10031), evolved line 7 adapted to the named antibiotic): 3.311
- Relative MIC [1, 12]: 1024
- Relative MIC [1, 4]: 1024
- Relative MIC [1, 13]: 2048
- Relative MIC [1, 14]: 2048
- Relative MIC ([1]; KP-SEN, Klebsiella pneumoniae ATCC 10031, evolved line 3 versus ancestor): 1024
- Relative MIC [1, 15]: 1024
- Relative MIC [1, 16]: 1024
- Relative MIC [1, 17]: 2048
- Relative MIC [1, 18]: 2048
- Relative MIC [1, 19]: 1024
- Relative MIC [1, 20]: 1024
- Relative MIC [1, 21]: 1024
- Relative MIC [1, 6]: 2048
- Relative MIC (log2) (E. coli BW25113-ΔacrB; replicate 1): -4
- Relative MIC (log2) (E. coli BW25113-ΔacrB; replicate 2): -4
- Relative MIC (log2) (E. coli BW25113-ΔacrB; replicate 3): -4

Source: PMC11845477, “Exploring the principles behind antibiotics with limited resistance” (Nature Communications, 2025)
